Results on eleven compounds are retold here after patent US11866431B2, “Bicyclic compounds” (Vivace Therapeutics, Inc., priority 2018, dated 2024).

Bounds are passed on as bounds.

This assay has as its system 8XTBD luciferase reporter (YAP reporter) in HEK293T cells. Put plainly: YAP Reporter Assay. It is filed as cell-based. To be noted: Homo sapiens, HEK-293T; HEK293T cells stably transfected with 8XTBD luciferase reporter and pRLTK; 24-hr incubation; top concentration 3 μM; read-out: Firefly Luciferase IC50. Summed up: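 HEK293T cells stably carrying 8XTBD firefly luciferase and TK-renilla (3×10^3 cells/well) dosed 3-4 h after plating with compounds from 3 μM final, 1:3 dilution, 10 points, quadruplicates. After 24 h at 37° C, Dual-Glo readings gave IC50 and maximum inhibition reported separately for firefly and renilla.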
(Reporter assays use an easily measured gene product as a stand-in for the process of interest.)
As a reminder, the IC50 is the point on the concentration scale where inhibition reaches its midpoint. Turning to `O=C(NCc1cccc(COc2ccon2)c1)c1ccc2c(-c3ccc(C(F)(F)F)cc3)cccc2c1` [Compound 192, N-(3-((isoxazol-3-yloxy)methyl)benzyl)-5-(4-(trifluoromethyl)phenyl)-2-naphthamide], the IC50 fell in the range of 100 to 1000 nM.
As for `O=C(O)c1ccc2c(-c3ccc(C(F)(F)F)s3)cccc2c1` [Compound 332, 5-[5-(trifluoromethyl)-2-thienyl]naphthalene-2-carboxylic acid], the figure is less than 100 nM; as for `C[C@H](NC(=O)c1ccc2c(-c3ccc(C(F)(F)F)cc3)cccc2c1)c1ncc[nH]1` [Compound 243, (S)—N-(1-(1H-imidazol-2-yl)ethyl)-5-(4-(trifluoromethyl)phenyl)-2-naphthamide], 100 to 1000 nM.
The value for `CC(=O)N1CC([C@@H](C)NC(=O)c2ccc3c(-c4ccc(C(F)(F)F)cc4)cccc3c2)C1` [Compound 199, (R)—N-(1-(1-acetylazetidin-3-yl)ethyl)-5-(4-(trifluoromethyl)phenyl)-2-naphthamide] was 100 to 1000 nM; that for `C[C@@H](NC(=O)c1ccc2c(-c3ccc(C(F)(F)F)cc3)cccc2c1)c1nccn1C` [Compound 254, (R)—N-(1-(1-methyl-1H-imidazol-2-yl)ethyl)-5-(4-(trifluoromethyl)phenyl)-2-naphthamide] was 100 to 1000 nM; that for `O=C(NCc1ccccn1)c1ccc2c(-c3ccc(C(F)(F)F)cc3)cccc2c1` [Compound 239, N-(pyridin-2-ylmethyl)-5-(4-(trifluoromethyl)phenyl)-2-naphthamide] was less than 100 nM.
Take `N#C/C=C\CCCNC(=O)c1ccc2c(-c3ccc(C(F)(F)F)cc3)cccc2c1` [Compound 228, N—[(Z)-5-cyanopent-4-enyl]-5-[4-(trifluoromethyl)phenyl]naphthalene-2-carboxamide]: the IC50 is less than 100 nM.
The value for `CC(C)NC(=O)c1ccc2c(-c3ccc(C(F)(F)F)cc3)cc3ocnc3c2c1` [Compound 71, N-isopropyl-5-(4-(trifluoromethyl)phenyl)naphtho[1,2-d]oxazole-8-carboxamide] was less than 100 nM; that for `O=C(N[C@H](CCO)c1ccccn1)c1ccc2c(-c3ccc(C(F)(F)F)cc3)cccc2c1` [Compound 165, (R)—N-(3-hydroxy-1-(pyridin-2-yl)propyl)-5-(4-(trifluoromethyl)phenyl)-2-naphthamide] was 1000 to 3000 nM; that for `CC(C)NC(=O)c1ccc2c(-c3ccc(C(F)(F)F)cc3)cc(Br)cc2c1` [Compound 32, 7-bromo-N-isopropyl-5-[4-(trifluoromethyl)phenyl]naphthalene-2-carboxamide] was less than 100 nM.
As for `C[C@@H](CO)NC(=O)c1ccc2c(-c3ccc(C(F)(F)F)cc3)cccc2c1` [Compound 84, (S)—N-(1-hydroxypropan-2-yl)-5-(4-(trifluoromethyl)phenyl)-2-naphthamide], the figure is less than 100 nM.
